Reference: patent US9284320B2, “Ticagrelor adducts with divalent metal salts” (Lek Pharmaceuticals d.d., priority 2012, dated 2016)
Blank lines part the entries; values can stand above or below the molecule they belong to.

Experiments:
[1] = Hygroscopicity observed on isolation of the adduct; type: physicochemical; conditions: on air, after filtration under nitrogen
Experimental: To a solution of TCG (0.30 g) in dry MeCN (4 mL) at 60° C. MgCl2 (60 mg) was added in one portion, and the resulting reaction mixture was stirred at 60° C. for 16 h.
To a solution of TCG (0.20 g) in dry MeCN (5 mL) at 50° C. MgBr2 (74 mg) was added in one portion, and the resulting reaction mixture was stirred at 50° C. for 15 min.

[2] = Physical stability at room temperature (DSC), adduct compared to amorphous TCG; type: physicochemical
Experimental: The so obtained Ia was left at room temperature in a closed vial to test physical stability. DSC analysis was performed after 21 days (FIG. 2) and after 31 days (FIG. 3).
DSC analysis of a sample was performed immediately (FIG. 4). Another sample of the so obtained Ia was left at room temperature to test physical stability.
TCG (0.52 g) was dissolved in 55 mL of aqueous ethanol (50 vol %) with the aid of ultrasonic irradiation. To the solution 33 mL water was poured at once and the obtained turbid mixture was frozen immediately in liquid nitrogen. The material was then lyophilized for 72 h at ˜0.8 mbar. DSC analysis of a sample was performed immediately (FIG. 6). Another sample of the so obtained amorphous TCG was left at room temperature to test physical stability.
Conditions for obtaining DSC thermograms: Thermograms were obtained with Mettler Toledo DSC822e differential scanning calorimeter. The sample (1-10 mg) was placed in an unsealed aluminium pan with a hole and heated at 10° C./min in the temperature range from 30° C. to 250° C.

[3] = general statement in the description; cited from earlier work

- hygroscopicity [1]: hygroscopic on air
SMILES: CCCSc1nc(N[C@@H]2C[C@H]2c2ccc(F)c(F)c2)c2nnn([C@@H]3C[C@H](OCCO)[C@@H](O)[C@H]3O)c2n1 [Ib]

SMILES: CCCSc1nc(N[C@@H]2C[C@H]2c2ccc(F)c(F)c2)c2nnn([C@@H]3C[C@H](OCCO)[C@@H](O)[C@H]3O)c2n1 [amorphous basic ticagrelor]
- chemical and physical stability (conversion of amorphous state to crystalline form) [2]: quickly converts to the more stable crystalline forms

SMILES: CCCSc1nc(N[C@@H]2C[C@H]2c2ccc(F)c(F)c2)c2nnn([C@@H]3C[C@H](OCCO)[C@@H](O)[C@H]3O)c2n1 [Ticagrelor, 3-[7-[[(1R,2S)-2-(3,4-difluorophenyl)cyclopropyl]amino]-5-(propylthio)-3H-1,2,3-triazolo[4,5-d]pyrimidin-3-yl]-5-(2-hydroxyethoxy)-(1S,2S,3R,5S)-1,2-cyclopentanediol]
- solubility in water [3]: low solubility in water
